From US20170258871A1, “COMBINED USE OF A TRKA INHIBITOR AND AN EPHA2 INHIBITOR FOR USING IN THE TREATMENT OF SOLID CANCERS, AND METHOD FOR THE PROGNOSIS OF SURVIVAL OF A PATIENT WHO HAS A SOLID CANCER” (UNIVERSITE DES SCIENCES ET TECHNOLOGIES DE LILLE, priority 2014, published 2017)

Legend:
[1] = test system: MDA-MB-231 HA-TrkA tumours; assay: Xenograft of MDA-MB-231 HA-TrkA in SCID mice, tumour volume (Experiment 1); format: in vivo; settings: 3 injections every 3 days from day 14; CEP-701 10 mg/kg intraperitoneal, siEphA2 7.5 microg/mouse close to the tumour
Method: FIG. 9: A study of the inhibition of TrkA and EphA2 on tumour development in vivo. The tumours were developed without any intervention for 14 days and then subjected to 3 injections (every 3 days, black arrows) of solvent (control), CEP-701 (10 mg/kg), siEphA2 (7.5 microg/mouse) or CEP-701 (10 mg/kg) and siEphA2 (7.5 microg/mouse). The experiments were stopped 31 days after the first injection of the treatment for ethical considerations after the death of the control mice. A) The tumour volumes were evaluated by measuring the length (;) and the width (w) and then calculating the volume using the formula π/6×l×W×(l+w)/2; the Mann and Whitney test was carried out between the control group and CEP-701 (a), between the control groups and siEphA2 (b), between the control groups and CEP-701+siEphA2 (c), and between the groups siEphA2 and CEP-701+siEphA2 (d)*, P<0.05; **, P<0.01; ns: not significant. B) Study of the inhibition of the expression of receptors by siRNA on the overall survival of SCID mice. […] The tumour volumes were evaluated by measuring the length (l) and width (w) and then calculating the volume using the formula π/6×l×W×(l+w)/2. […] Significance was measured using the log-rank test (P=0.0022). […]
Experiment 1: the mice used were six-week old SCID females. […] The tumour volume was measured according to the following formula: π/6×length×width×(width+length)/2. […]

[2] = test system: CAL33 cells; assay: In vitro invasion test (Boyden chamber), CAL 33; format: cell-based; settings: NGF 16 nM or proNGF N.C. 0.5 nM, untreated cells = 100%
Method: (§1) (0.5 nM) for a period of 20 hours. The untreated cells represent the control and determine a base invasion of 100%.
(§2) The Boyden Chambers (Transwell®; BD Biosciences; France) were recovered from a biological matrix (type 1 collagen from rats diluted to 400 μg·mL-1 in EMEM-0.1% FCS medium; Millipore). The cells were then seeded with 100,000 cells/well on PET membranes (polyethylene terephtalate; dia.: 10.5 mm; porosity: 8 μm) of Boyden Chambers and held in an EMEM-0.1% FCS medium. […] (0.5 nM) in the lower part. After 20 hours of culture, they were washed twice with PBS 1× and fixed (ice cold methanol; 15 min; −20° C.). The non-invasive cells (upper face of the Transwell®) were eliminated by scraping. The number of cells was estimated after staining with Hoechst 33 258 (1 mM; 30 min; 20° C.) by counting the nuclei thereof using fluorescence microscopy on a total of 5 five randomly chosen fields (lens 10×; λ-excitation: 345 nm; λ-emission: 478 nm; Eclipse Ti) using the ImageJ software. Each experiment was performed in triplicate. Statistical analysis of the results was performed by analysis of variance ANOVA (Bonferroni post-hoc test).

[3] = test system: FaDu cells; assay: In vitro invasion test (Boyden chamber), FaDu; format: cell-based; settings: NGF 16 nM or proNGF N.C. 0.5 nM, untreated cells = 100%
Method: as §1, §2

Row | Substance | tumour volume / growth of xenografted tumours vs control [1] | cell invasion under growth factor [2] | cell invasion under growth factor [3]
1 | siEphA2: siRNA against EphA2, GCAAGGAAGUGGUACUGCUGGACUU (SEQ ID NO: 1) (listed as RNA, chemistry not given here) | strongly reduces the growth of xenografted tumours | – | –
2 | NGF: Nerve Growth Factor; recombinant human β NGF supplied by Scil Proteins | – | increased cell invasion | did not respond
